From US20120101164A1, “ABSCISSION AND CROP STORAGE UNIT” (TAMINCO, NAAMLOZE VENNOOTSCHAP, priority 2009, published 2012)
Where two headings read alike, the source gives them in different places.

Assays:
Format in all cases: in vivo
[1] = test system: PAPAVER Nudicaule (Iceland Poppy); assay: Petal abscission delay, auxins/precursors with or without AC; conditions: for change in vivo at 10000 µM: Papaver nudicaule; for Total Duration of Flowering (to petal fall): auxin/precursor 10^-2 Molar solution, AC 3 g per hectare equivalent
Description: (§1) Cultural Details: plants were sown in a commercial seed compost and then “pricked out” into a professional grade all-purpose compost in 9 cm pots set out in a randomized block design. Normal daylight plus supplementary lighting to provide a minimum of 10 hours per day. Heating was given to a minimum of 60 degrees Fahrenheit during the day and 40 degrees at night.
Sowing Date: 18 Nov. […] Application Date: 5 Jan.
Measurement Date: 12 Jan.
A number of auxins or auxin precursors were applied, each at 10^−2 Molar solutions. Addition of acetaminophen (AC) was at 3 g per hectare equivalent in each test. Measurement: Delay of first petal fall for each treatment (in days).

RADISH—cv F1 Apache [2] = assay: Post-harvest shelf-life, auxins/precursors with or without AC; conditions: for change in vivo at 10000 µM: Raphanus sativus; for Shelf-Life Duration (days after harvest): ambient temperature, auxin/precursor 10^-2 Molar, AC 3 g per hectare equivalent, two applications
Description: as §1
Sowing Date: 3 Nov. […] Application Dates: 28 Dec. […] Harvest Date: 11 Jan. […] Measurement: Shelf-Life (days after harvest) at ambient temperature.
A number of auxins or auxin precursors were compared, each at 10^−2 Molar solutions. Addition of acetaminophen (AC) was at 3 g per hectare equivalent in each test.

RADISH—cv F1 Apache [3] = assay: Post-harvest shelf-life, AN or AN + AC with additives; conditions: for Shelf-Life Duration (days after harvest): AN 1 g per hectare, AC 3 g per hectare, additive rate per ha as in label
Description: (§2) To each were added certain agrochemically acceptable additives, as examples.
as §1
Sowing Date: 28 Jan. 2010, in plugs. Application Date: 5 Mar. 2010.
Measurement Date: 13 Mar. 2010. • Measurement: Shelf-life duration (days).

[4] = test system: PAPAVER Nudicaule (Iceland Poppy); assay: Petal abscission delay, AN or AN + AC with additives; conditions: for Total Duration of Flowering (to petal fall): AN 1 g per hectare, AC 3 g per hectare, additive rate per ha as in label
Description: as §2, §1
Sowing Date: 19 Dec. 2009, in plugs. Application Date: 7 Feb. 2010.
Measurement Date: 12 Feb. 2010, at daily intervals.
Measurement: Delay of first petal-fall for each treatment (in days).

[5] = read-out: % Improvement over control
[6] = duration of flowering, read-out: % Improvement over control
[7] = shelf-life, read-out: % Improvement over control
[8] = read-out: % Improvement over control, duration of flowering
[9] = read-out: % Improvement over control, shelf-life

| Structure (SMILES) | Total Duration of Flowering (to petal fall) [1] [days] | Shelf-Life Duration (days after harvest) (RADISH—cv F1 Apache [2]) [days] | change in vivo at 10000 µM [1, 6] [%] | change in vivo at 10000 µM (RADISH—cv F1 Apache [2]; [7]) [%] | change in vivo at 10000 µM [1, 8] [%] | change in vivo at 10000 µM (RADISH—cv F1 Apache [2]; [9]) [%] | other results |
| --- | --- | --- | --- | --- | --- | --- | --- |
| N[C@@H](Cc1c[nH]c2ccccc12)C(=O)O [L-Tryptophan] | 10.8 | 6.5 | – | – | – | – | change in vivo at 10000 µM [1, 5]: 10.2%; change in vivo at 10000 µM (RADISH—cv F1 Apache [2]; [5]): 3.2% |
| NC(=O)Cc1c[nH]c2ccccc12 [Indole-3-acetamide] | 11.9 | 6.5 | 21.4 | 3.2 | – | – | – |
| Nc1c(O)cccc1C(=O)O [3-Hydroxyanthranilic acid] | 11.6 | 7.3 | 18.4 | 15.9 | – | – | – |
| Nc1ccccc1C(=O)O [Anthranilic acid, anthranilic acid] | 12.2 | 8.6 | – | – | – | – | Shelf-Life Duration (days after harvest) (RADISH—cv F1 Apache [3]): 8.5 days; % Improvement over untreated (RADISH—cv F1 Apache [3]; shelf-life): +44.1%; % Improvement over control ([1]; duration of flowering): +24.5%; % Improvement over control (RADISH—cv F1 Apache [2]; shelf-life): +36.5%; Total Duration of Flowering (to petal fall) [4]: 10.9 days; % Improvement over appropriate control (ie AN or AN + AC) ([4]; duration of flowering): +0.0%; % Improvement over untreated ([4]; duration of flowering): +23.9% |
| CC(=O)Nc1ccc(O)cc1 [AC, N-(4-hydroxypheyl)acetamide, reference compound] | 9.9 | 6.2 | 0 | 0 | – | – | Shelf-Life Duration (days after harvest) (RADISH—cv F1 Apache [3]): 5.8 days; Total Duration of Flowering (to petal fall) [4]: 8.8 days |
| CC(N)=O [Acetamide] | 11.7 | 8.7 | 19.4 | 38.1 | – | – | – |
| NCCc1c[nH]c2ccccc12 [Tryptamine] | 11.7 | 7.0 | – | – | 19.4 | 11.1 | – |
| COC(=O)c1ccccc1N [Anthranilic acid methyl ester] | 12.1 | 8.7 | – | – | 23.5 | 38.1 | – |
| Nc1ccccc1C(=O)[O-].[Na+] [Anthranilic Acid monosodium salt] | 11.7 | 7.7 | – | – | 19.4 | 22.2 | – |
